Data as given in article PMC10385868 (Viruses, 2023).
Values joined by “and” are separate entries in the source; they are usually repeats but may differ in a detail not shown here. Equal values may be shown once.

How the values were obtained:
[1] = SD, rat
WEEV nsP2 protease = WEEV nsP2 protease (Western equine encephalitis virus, UniProt P13896); assay type: biochemical
A549 = settings: African green monkey
VEEV nsP2 protease = VEEV nsP2 protease (Venezuelan equine encephalitis virus, UniProt P27282); experiment: biochemical
VEEV nsP2 protease, sequence (P27282 1003-1322 limits assumed): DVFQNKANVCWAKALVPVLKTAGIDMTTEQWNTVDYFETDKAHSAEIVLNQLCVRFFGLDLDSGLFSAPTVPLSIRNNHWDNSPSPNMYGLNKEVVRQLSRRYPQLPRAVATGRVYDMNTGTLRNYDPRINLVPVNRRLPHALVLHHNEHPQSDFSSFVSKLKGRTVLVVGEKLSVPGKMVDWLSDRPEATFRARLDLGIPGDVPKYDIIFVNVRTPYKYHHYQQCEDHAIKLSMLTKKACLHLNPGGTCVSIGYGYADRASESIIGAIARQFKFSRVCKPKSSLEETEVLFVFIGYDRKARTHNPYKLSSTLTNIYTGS

CHIKV nsP2 protease = CHIKV nsP2 protease (Chikungunya virus, UniProt Q8JUX6); assay type: biochemical
CHIKV nsP2 protease, sequence (Q8JUX6 1004-1327 limits assumed): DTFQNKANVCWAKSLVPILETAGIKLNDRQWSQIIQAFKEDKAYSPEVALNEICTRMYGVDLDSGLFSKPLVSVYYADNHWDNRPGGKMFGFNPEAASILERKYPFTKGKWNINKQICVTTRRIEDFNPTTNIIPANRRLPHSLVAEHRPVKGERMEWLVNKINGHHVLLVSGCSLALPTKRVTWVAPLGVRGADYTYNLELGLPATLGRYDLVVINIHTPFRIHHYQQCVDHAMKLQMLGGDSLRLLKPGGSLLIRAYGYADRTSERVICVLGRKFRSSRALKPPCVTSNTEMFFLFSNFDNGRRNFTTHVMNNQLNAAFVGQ

WEEV nsP2 protease, sequence (P13896 1001-1320 limits assumed): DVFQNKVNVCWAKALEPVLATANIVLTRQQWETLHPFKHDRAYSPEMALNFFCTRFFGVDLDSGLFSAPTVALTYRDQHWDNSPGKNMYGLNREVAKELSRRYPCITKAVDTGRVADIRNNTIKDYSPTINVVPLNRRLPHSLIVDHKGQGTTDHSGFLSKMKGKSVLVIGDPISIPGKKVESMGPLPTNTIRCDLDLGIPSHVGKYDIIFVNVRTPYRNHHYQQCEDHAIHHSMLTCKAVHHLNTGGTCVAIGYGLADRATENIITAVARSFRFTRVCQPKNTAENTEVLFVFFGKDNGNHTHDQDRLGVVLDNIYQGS

## CCCNC(=O)[C@H]1O[C@@H]1C(=O)N[C@H](C(=O)N1CCC[C@H]1C(=O)O)[C@@H](C)CC [CA074]
[1]
  Microsomal Stability t1/2: >30 min
  Rat_SD/Microsomes t1/2: >30 m
WEEV nsP2 protease
  inhibition of WEEV nsP2 protease: inhibited
A549
  CC50: > 100 µM
other
  PAMPA: <1 ×10⁻⁶ cm/s
PAMPA
  Permeability (PAMPA_Pion_Lipid): <1 ×10⁻⁶ cm/s
VEEV nsP2 protease
  enhancement of inhibitor binding by Mg^2+ and Mn^2+: 3 to 6 fold
VEEV nsP2 protease; 50 mm hepes, pH 7
  k2/Ki: 3.3 ± 3.3 M⁻¹ s⁻¹
VEEV nsP2 protease; Ki
  Ki: 1200 µM and 410 µM and 210 µM and 2000 µM
VEEV nsP2 protease; pH 7, read-out: k2/Ki
  kinact/KI: 3.33 M⁻¹ s⁻¹
CHIKV nsP2 protease
  inhibition of CHIKV nsP2 protease: inhibited
